Experimental data taken from patent US8722849B2, “Polypeptides” (Novo Nordisk A/S, priority 2011, dated 2014).
Starred links: 1 amine or outer side, 2 acyl side, 3 side chain; linkers in the order of their positions; H or OH if unused. Positions of bridges follow the written chain, without caps; N, C: chain ends. Residues, ends and D or L forms follow the SMILES beside them. *: point of attachment. C20 diacid = O=C(O)CCCCCCCCCCCCCCCCCCC(=O)*; C18 diacid = O=C(O)CCCCCCCCCCCCCCCCC(=O)*; γGlu = O=C(O)[C@H](CCC(=O)[*:2])N[*:1]

Tests used:
[1] = Assay (III) ThT fibrillation assay for physical stability; assay type: physicochemical
Summary of the method: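 Freshly prepared formulations, pH-adjusted, with 1 μM ThT; four or eight replicates incubated at 37 °C under 960 rpm orbital shaking. Fluorescence (ex 444/em 485 nm) read every 20 min; […]. Peptide concentration measured by RP-HPLC before and after the run.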

[2] = tested on: food intake; test: Assay (I) efficacy testing on appetite (food intake), ad libitum fed rat model; assay type: in vivo, Sprague Dawley (SD) rats; conditions: 3 nmol/kg
Summary of the method: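 Food consumption was logged per animal every hour up to 7 h and again at 24 h (occasionally 48 h) after a single 0.01–3 mg/kg dose, given sc, po or ip at dark-phase onset. Ad libitum fed SD rats, 200–250 g, kept on inverted light/dark cycle; vehicle group included, outliers removed by Grubbs test.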

Structure (SMILES) | ThT pH 4.0 lag time ([1]; Table 8) | ThT pH 4.0 lag time ([1]; ThT fibrillation assay) | ThT pH 4.0 lag time (h) ([1]; ThT fibrillation assay) | Food intake reduction 0-24 h 3 nmol/kg (%) [2] | Food intake reduction 24-48 h 3 nmol/kg (%) [2]
CC[C@H](C)[C@H](NC(=O)[C@@H]1CCCN1C(=O)CNC(=O)[C@H](Cc1ccccc1)NC(=O)[C@H](CC(N)=O)NC(=O)[C@H](CC(N)=O)NC(=O)[C@H](CO)NC(=O)[C@H](CO)NC(=O)[C@H](Cc1c[nH]cn1)NC(=O)[C@H](Cc1c[nH]cn1)NC(=O)[C@H](CC(C)C)NC(=O)[C@H](Cc1ccccc1)NC(=O)[C@H](CCC(=O)O)NC(=O)[C@H](C)NC(=O)[C@H](CC(C)C)NC(=O)[C@H](CCCNC(=N)N)NC(=O)[C@H](CCC(N)=O)NC(=O)[C@@H](NC(=O)[C@H](C)NC(=O)[C@@H]1CSSC[C@H](NC(=O)[C@H](CCCCN)NC(=O)CC[C@H](NC(=O)CCCCCCCCCCCCCCCCC(=O)O)C(=O)O)C(=O)N[C@@H](CC(N)=O)C(=O)N[C@@H]([C@@H](C)O)C(=O)N[C@@H](C)C(=O)N[C@@H]([C@@H](C)O)C(=O)N1)[C@@H](C)O)C(=O)N[C@@H](CC(C)C)C(=O)N1CCC[C@H]1C(=O)N1CCC[C@H]1C(=O)N[C@H](C(=O)N[C@@H](CC(N)=O)C(=O)N[C@H](C(=O)NCC(=O)N[C@@H](CO)C(=O)N[C@@H](CC(N)=O)C(=O)N[C@H](C(=O)N[C@@H](Cc1ccc(O)cc1)C(N)=O)[C@@H](C)O)C(C)C)[C@@H](C)O [Example 46, N-alpha-[(S)-4-Carboxy-4-(17-carboxyheptadecanoylamino)butyryl]-[Glu14,His17]-pramlintide] ({C18 diacid-γGlu}-KCNTATCATQRLAEFLHHSSNNFGPILPPTNVGSNTY-NH2; disulfide 2-7 (inferred); C-terminus assumed) | 27.9 h | 27.9 h | 27.9 h | 54% | 27%
CC[C@H](C)[C@H](NC(=O)[C@@H]1CCCN1C(=O)CNC(=O)[C@H](Cc1ccccc1)NC(=O)[C@H](CC(N)=O)NC(=O)[C@H](CC(N)=O)NC(=O)[C@H](CO)NC(=O)[C@H](CO)NC(=O)[C@H](Cc1c[nH]cn1)NC(=O)[C@H](CCCNC(=N)N)NC(=O)[C@H](CC(C)C)NC(=O)[C@H](Cc1ccccc1)NC(=O)[C@H](CCC(=O)O)NC(=O)[C@H](C)NC(=O)[C@H](CC(C)C)NC(=O)[C@H](CCCNC(=N)N)NC(=O)[C@H](CCC(N)=O)NC(=O)[C@@H](NC(=O)[C@H](C)NC(=O)[C@@H]1CSSC[C@H](NC(=O)[C@H](CCCCN)NC(=O)CC[C@H](NC(=O)CCCCCCCCCCCCCCCCCCC(=O)O)C(=O)O)C(=O)N[C@@H](CC(N)=O)C(=O)N[C@@H]([C@@H](C)O)C(=O)N[C@@H](C)C(=O)N[C@@H]([C@@H](C)O)C(=O)N1)[C@@H](C)O)C(=O)N[C@@H](CC(C)C)C(=O)N1CCC[C@H]1C(=O)N1CCC[C@H]1C(=O)N[C@H](C(=O)N[C@@H](CC(N)=O)C(=O)N[C@H](C(=O)NCC(=O)N[C@@H](CO)C(=O)N[C@@H](CC(N)=O)C(=O)N[C@H](C(=O)N[C@@H](Cc1ccc(O)cc1)C(N)=O)[C@@H](C)O)C(C)C)[C@@H](C)O [Example 50, N-alpha-[(S)-4-Carboxy-4-(19-carboxynonadecanoylamino)butyryl]-[Glu14,Arg17]-pramlintide] ({C20 diacid-γGlu}-KCNTATCATQRLAEFLRHSSNNFGPILPPTNVGSNTY-NH2; disulfide 2-7 (inferred)) | – | >45 h | >45 h | 30% | 8%
